Measured values published in the NIST ThermoML archive (doi:10.1016/j.jct.2013.05.029).
Numbers after ± are expanded uncertainties.

Legend:
[1] = refractive index (other wavelength) (dimensionless); xn = mol fraction of the nth substance listed; conditions: 101 kPa, Liquid, Wavelength=633 nm, Standard Abbe refractometry
[2] = 101.33 kPa, Liquid, Vibrating tube method
[3] = refractive index (other wavelength) (dimensionless); conditions: 101 kPa, Liquid, Wavelength=633 nm, Standard Abbe refractometry
[4] = relative permittivity at various frequencies (dimensionless); conditions: 101 kPa, Liquid, Frequency=0.151 MHz, Parallel plate capacitor

OCCC(F)(F)C(F)(F)C(F)(F)C(F)(F)C(F)(F)C(F)(F)F [1H,1H,2H,2H-perfluorooctanol] + CCCCn1cc[n+](C)c1.F[B-](F)(F)F
[1]
Conditions	refractive index
568.17 K, x2 = 0.483	1.3609 ± 0.0021
568.17 K, x2 = 0.975	1.417 ± 0.002
569.9 K, x2 = 0.514	1.3635 ± 0.0021
569.9 K, x2 = 0.972	1.4162 ± 0.002
570.62 K, x2 = 0.528	1.3648 ± 0.0021
570.62 K, x2 = 0.969	1.4157 ± 0.002
571.13 K, x2 = 0.539	1.3658 ± 0.0021
571.13 K, x2 = 0.967	1.4153 ± 0.0021
571.88 K, x2 = 0.555	1.3673 ± 0.0021
571.88 K, x2 = 0.963	1.4146 ± 0.0021
572.59 K, x2 = 0.569	1.3686 ± 0.0021
572.59 K, x2 = 0.96	1.414 ± 0.002
573.11 K, x2 = 0.585	1.3701 ± 0.002
573.11 K, x2 = 0.958	1.4137 ± 0.0021
573.58 K, x2 = 0.595	1.3712 ± 0.002
573.58 K, x2 = 0.953	1.4128 ± 0.0021
574.07 K, x2 = 0.61	1.3726 ± 0.0021
574.07 K, x2 = 0.946	1.4119 ± 0.0021
574.57 K, x2 = 0.62	1.3736 ± 0.0021
574.57 K, x2 = 0.944	1.4115 ± 0.0021
575.11 K, x2 = 0.641	1.3757 ± 0.0021
575.11 K, x2 = 0.935	1.4102 ± 0.002
575.59 K, x2 = 0.663	1.378 ± 0.0021
575.59 K, x2 = 0.93	1.4096 ± 0.002
576.09 K, x2 = 0.684	1.3803 ± 0.002
576.09 K, x2 = 0.917	1.4078 ± 0.0021
576.69 K, x2 = 0.729	1.3852 ± 0.0021
576.69 K, x2 = 0.892	1.4045 ± 0.0021

OCCC(F)(F)C(F)(F)C(F)(F)C(F)(F)C(F)(F)C(F)(F)F [1H,1H,2H,2H-perfluorooctanol]
Conditions	mass density [kg/m3]	refractive index	relative permittivity
[2], 291.15 K	1692.2 ± 0.9	–	–
[2], 293.15 K	1688.7 ± 0.9	–	–
[2], 295.14 K	1685.2 ± 0.9	–	–
[2], 298.15 K	1679.9 ± 0.9	–	–
[2], 300.14 K	1676.4 ± 0.9	–	–
[2], 303.15 K	1671 ± 0.9	–	–
[2], 305.14 K	1667.5 ± 0.9	–	–
[2], 308.15 K	1662.1 ± 0.8	–	–
[2], 310.14 K	1658.5 ± 0.8	–	–
[3], 292.89 K	–	1.3152 ± 0.0021	–
[3], 297.98 K	–	1.3134 ± 0.0021	–
[3], 300.94 K	–	1.3125 ± 0.0021	–
[3], 304.98 K	–	1.3112 ± 0.0021	–
[3], 307.95 K	–	1.3101 ± 0.0021	–
[3], 308.13 K	–	1.31 ± 0.0021	–
[4], 293.15 K	–	–	9.67 ± 0.02
[4], 298.15 K	–	–	9.21 ± 0.02
[4], 303.15 K	–	–	8.83 ± 0.02
[4], 308.15 K	–	–	8.46 ± 0.02
[4], 313.15 K	–	–	8.12 ± 0.02

CCCCn1cc[n+](C)c1.F[B-](F)(F)F [1-butyl-3-methylimidazolium tetrafluoroborate]
Conditions	mass density [kg/m3]	refractive index
[2], 291.15 K	1206.3 ± 0.4	–
[2], 293.15 K	1204.9 ± 0.4	–
[2], 295.14 K	1203.5 ± 0.4	–
[2], 298.15 K	1201.3 ± 0.4	–
[2], 300.14 K	1199.9 ± 0.4	–
[2], 303.15 K	1197.7 ± 0.4	–
[2], 305.14 K	1196.3 ± 0.4	–
[2], 308.15 K	1194.1 ± 0.4	–
[2], 310.14 K	1192.7 ± 0.4	–
[3], 292.99 K	–	1.4207 ± 0.002
[3], 298.14 K	–	1.4194 ± 0.002
[3], 300.94 K	–	1.4187 ± 0.002
[3], 303.06 K	–	1.4182 ± 0.002
[3], 307.96 K	–	1.4169 ± 0.002
